Like-named read-outs stand apart in the source and are kept apart here. Positions of bridges follow the written chain, without caps; N, C: chain ends. No end group written: not given here.

What all share (assay type): biochemical
One test addresses T1, TF.cndot.FVIIa (Homo sapiens, UniProt P08709).
T1 construct: is generated by proteolysis of a single peptide bond from its zymogen Factor VII (FVII); purchased Haematologic Technologies Inc. (Essex Jct., Vt.); host or cells: TF1-243 made in house in E. coli
Briefly: TF·FVIIa enzyme inhibition assay, apparent equilibrium dissociation constant (Ki*). The protocol: Aliquots (25 μL) from each well of a microtiter plate containing the serially diluted inhibitors were transferred into new microtiter plates, each containing a different protease (100 μL) in the appropriate buffer. The proteases tested (protease concentration, buffer, substrate) were FVIIa (10 nM, Buffer A, 0.7 mM S2366), FXIa (1.0 nM, Buffer B containing 1 mg/ml BSA, 0.7 mM S2366), plasma kallikrein (3.5 nM, Buffer B, 0.5 mM S2302), and plasmin (15 nM, Buffer B, 1 mM S2251).

The target in another test is thrombin (Homo sapiens, UniProt P00734). Briefly: thrombin enzyme inhibition assay (Ki*).
The target of the next test is T2, FXa (Homo sapiens, UniProt P00742).
T2 construct: purchased Haematologic Technologies Inc. (Essex Jct., Vt.)
Briefly: FXa enzyme inhibition assay (Ki*).

In a further test the target is T3, FXIIa (Homo sapiens, UniProt P00748).
T3 construct: purchased Enzyme Research Laboratories, Inc. (South Bend, Ind.)
T3 sequence (P00748 373-615 limits assumed): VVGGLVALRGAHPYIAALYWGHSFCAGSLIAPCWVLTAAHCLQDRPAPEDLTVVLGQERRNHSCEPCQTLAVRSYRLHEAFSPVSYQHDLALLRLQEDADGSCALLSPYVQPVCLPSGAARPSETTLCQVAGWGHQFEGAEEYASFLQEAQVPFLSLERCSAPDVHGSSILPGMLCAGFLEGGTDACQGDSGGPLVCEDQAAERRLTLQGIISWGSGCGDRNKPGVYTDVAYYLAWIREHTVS
T3 sequence (P00748 20-372 limits assumed): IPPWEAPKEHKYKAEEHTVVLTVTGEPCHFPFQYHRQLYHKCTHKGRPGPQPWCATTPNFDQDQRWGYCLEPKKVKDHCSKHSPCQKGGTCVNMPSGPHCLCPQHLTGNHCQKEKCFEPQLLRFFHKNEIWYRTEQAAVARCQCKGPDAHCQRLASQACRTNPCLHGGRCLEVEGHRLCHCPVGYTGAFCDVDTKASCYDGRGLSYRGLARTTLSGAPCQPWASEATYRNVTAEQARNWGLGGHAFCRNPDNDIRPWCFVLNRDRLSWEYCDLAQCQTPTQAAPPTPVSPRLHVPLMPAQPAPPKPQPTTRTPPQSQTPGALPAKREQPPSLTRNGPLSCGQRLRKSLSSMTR
Briefly: FXIIa enzyme inhibition assay (Ki*).

A further test deals with T4, activated protein C (Homo sapiens, UniProt P04070).
T4 construct: purchased Haematologic Technologies Inc. (Essex Jct., Vt.)
Briefly: activated protein C enzyme inhibition assay (Ki*).

In test [1] the test system is normal human plasma, clotting initiated by TF membranes. Briefly: tissue factor initiated prothrombin time (PT) assay. The method, then:
FIG. 6. Prolongation of clotting time in the PT assay in normal human plasma. […] The uninhibited clotting time was 48 sec.
Clotting times were performed using the ACL 300 Research Coagulation Analyzer. For the prothrombin time (PT) assays, the incubation time was set at 120 sec and acquisition time at 120 to 600 sec depending on the expected outcome of the assay. Membranes from 293 cells expressing full length TF (Paborsky, L. R. et al., Biochemistry 28: 8072-8077 [1989]) were premixed with CaCl2. The sample (plasma and inhibitor) and reagent (CaCl2 /TF) were automatically mixed together after a 2 min incubation at 37° C. The clotting time was determined by optical assessment. The total incubation time of inhibitor with plasma before addition of CaCl2 /TF was ca. 5 min. Final concentrations were 2 to 20 μM inhibitor, 3.7 nM TF (0.9 μg/ml by protein content), 22.5 mM CaCl2, and 50% plasma in a total volume of 160 μL.

In test [2] the test system is normal human plasma, clotting initiated by ellagic acid. The test is described as follows: activated partial thromboplastin time (APTT) assay. Particulars: ca. 7 μM inhibitor. The protocol:
FIG. 7. Prolongation of clotting time in the APTT assay in normal human plasma. […] The uninhibited clotting time was 31 sec.
For the activated partial thromboplastin time (APTT) assays, the activation time was set at 120 sec and acquisition time at 300 to 600 sec depending on the expected outcome of the assay. Citrated normal human plasma and inhibitor were incubated together. The sample (plasma and inhibitor) and activator (Instrumentation Laboratories Ellagic acid/Phospholipid mix Test Reagent) were automatically pipetted and incubated together for 2 min at 37° C., then CaCl2 was added and clotting time determined by means of optical assessment. The total incubation time of inhibitor with plasma was ca. 3 min before addition of activator, and 5 min before addition of CaCl2.

Setting [3] is: equilibrium conditions, read-out: apparent Ki* with TF.cndot.FVIIa (FIG. 4).

T1 sequence (P08709 213-466 limits assumed): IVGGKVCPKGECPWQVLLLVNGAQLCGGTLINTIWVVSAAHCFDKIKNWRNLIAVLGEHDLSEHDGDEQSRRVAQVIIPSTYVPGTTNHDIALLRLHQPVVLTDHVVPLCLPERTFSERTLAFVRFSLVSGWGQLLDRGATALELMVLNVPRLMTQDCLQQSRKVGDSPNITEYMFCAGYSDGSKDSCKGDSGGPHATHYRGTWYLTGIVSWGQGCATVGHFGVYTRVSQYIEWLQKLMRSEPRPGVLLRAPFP
T1 sequence (P08709 61-212 limits assumed): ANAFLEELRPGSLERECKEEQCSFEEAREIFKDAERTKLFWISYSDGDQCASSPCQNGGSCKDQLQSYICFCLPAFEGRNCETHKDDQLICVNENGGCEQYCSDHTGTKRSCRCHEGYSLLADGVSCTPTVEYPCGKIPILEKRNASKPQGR
T1 sequence (P13726 33-275 partner limits assumed): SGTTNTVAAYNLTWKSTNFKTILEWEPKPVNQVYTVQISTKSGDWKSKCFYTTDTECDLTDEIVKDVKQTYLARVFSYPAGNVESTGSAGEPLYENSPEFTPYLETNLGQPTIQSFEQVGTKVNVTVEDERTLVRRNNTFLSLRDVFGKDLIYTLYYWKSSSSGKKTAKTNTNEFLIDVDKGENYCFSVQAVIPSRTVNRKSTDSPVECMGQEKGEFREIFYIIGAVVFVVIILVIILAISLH
T4 sequence (P04070 212-450 limits assumed): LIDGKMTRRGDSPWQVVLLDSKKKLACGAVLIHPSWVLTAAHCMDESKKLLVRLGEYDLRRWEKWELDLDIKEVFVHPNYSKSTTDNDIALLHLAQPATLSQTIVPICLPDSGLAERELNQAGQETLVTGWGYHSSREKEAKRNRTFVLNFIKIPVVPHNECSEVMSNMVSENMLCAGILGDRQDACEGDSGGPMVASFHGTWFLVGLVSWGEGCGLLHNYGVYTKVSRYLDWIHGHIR
T4 sequence (P04070 43-197 limits assumed): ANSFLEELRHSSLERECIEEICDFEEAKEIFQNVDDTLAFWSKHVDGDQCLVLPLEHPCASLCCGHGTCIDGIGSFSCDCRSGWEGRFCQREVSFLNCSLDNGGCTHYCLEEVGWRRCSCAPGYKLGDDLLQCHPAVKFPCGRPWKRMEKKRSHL
T2 sequence (P00742 235-488 limits assumed): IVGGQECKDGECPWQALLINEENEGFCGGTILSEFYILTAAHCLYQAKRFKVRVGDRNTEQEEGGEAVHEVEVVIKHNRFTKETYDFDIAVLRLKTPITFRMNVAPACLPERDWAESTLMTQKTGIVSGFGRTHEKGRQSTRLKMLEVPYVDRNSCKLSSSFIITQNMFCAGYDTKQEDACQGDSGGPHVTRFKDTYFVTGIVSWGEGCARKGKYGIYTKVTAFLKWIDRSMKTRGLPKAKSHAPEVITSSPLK
T2 sequence (P00742 41-179 limits assumed): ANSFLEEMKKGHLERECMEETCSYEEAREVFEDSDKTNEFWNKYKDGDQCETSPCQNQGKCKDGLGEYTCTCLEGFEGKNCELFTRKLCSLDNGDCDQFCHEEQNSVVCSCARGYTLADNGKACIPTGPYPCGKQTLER
Procedure for FXIIa: (§1) To aliquots of serial diluted inhibitor, either activated protein C, thrombin, FXa, FXIa, FXIIa, plasma kallikrein or plasmin were added. After incubation and addition of the appropriate substrate, plots of fractional activity versus inhibitor concentration were generated as described in Example 3.
(§2) After incubation of the substrate/inhibitor mixes at room temperature for 1-3 h, the appropriate substrate (20 μL) was added, and the absorbance at 405 nm was monitored. Controls lacking inhibitor and enzyme were assayed to measure the uninhibited and substrate hydrolysis rates, respectively. Plots of the fractional rate versus inhibitor concentration were fit by nonlinear regression analysis to equation 1 and apparent equilibrium dissociation constants (Ki *) were determined. […] The concentrations of activated protein C, thrombin and plasmin were based upon those of the supplier.
Procedure for FXa: as §1, §2
Procedure for activated protein C: as §1, §2

In the case of “first Kunitz domain of TFPI: first Kunitz domain (residues 22-79) of human tissue factor pathway inhibitor (MHSFCAFKADDGPCKAIMKRFFFNIFTRQCEEFIYGGCEGNQNRFESLEECKKMCTRD)”, the Ki with TF.cndot.FVIIa (setting [3]) was about 600 nM.

In the case of “VREVCSEQAETGPCRAMISRWYFDVTEGKCAPFFYGGCGGNRNNFDTEEYCMAVCGSA (disulfide 5-55, 14-38, 30-51) [APPI]”, the Ki was over 10000 nM on thrombin; over 10000 nM at FXa; over 10000 nM at FXIIa; 300 nM at TF.cndot.FVIIa (FVIIa 10 nM, TF1-243 50 nM, nonlinear regression, equation 1, read-out: Ki* with TF.cndot.FVIIa (FIG. 5, representative determination)); 301 ± 44 nM on TF.cndot.FVIIa (setting [3]); over 10000 nM on activated protein C.

Consider “TF7I-C: APPI Kunitz domain variant (SEQ ID NO: 33) with Thr11Pro, Met17Leu, Ser19Leu and Gly39Tyr compared to wild type APPI”, for which the “prolongation of clotting time in PT assay” value in test [1] (10 μM inhibitor, clotting initiated by TF membranes) is about 3 fold; in test [1] (ca. 20 μM inhibitor), 4 fold. Also, the “prolongation of clotting time in APTT assay” value in test [2] is listed as “greater than 10 fold”.
